Results on 2 molecules are retold here after patent US6677141B2, “Edible compositions of Bacillus subtilis natto cells containing water-soluble vitamin K” (Honda Trading Corporation, priority 1998, dated 2004).

Data set [1] is described as follows: MK-7 level in plasma after oral ingestion by healthy adults (HPLC). It is filed as in vivo, human (healthy adults). As to the method: The measurement of the amounts of MK-7, MK-4, and vitamin K1 by the high-performance liquid chromatography (HPLC) makes use of the phenomenon that vitamin K is reduced by a platinum-alumina catalyst into a hydroquinone compound and made to form a fluorescent substance. To be more specific, this measurement is carried out under the following conditions.
Then, five healthy adults were each caused to ingest 1 g of the dry cells at 10 o'clock every morning. After the elapse of a prescribed interval, blood was collected from each of the healthy adults and was tested for MK-7 level in the plasma. The time-course changes of MK-7 level in the plasma were investigated.
Five healthy adults were each caused to ingest 1 g of dry cells (containing 1.8×10^10 live cells) of Nitto strain (made by Nitto Yakuhin Kogyo K.K. in Kyoto) at 10 o'clock every morning. Then, blood was collected from the adults along the course of time. The plasma was separated from the collected blood and tested for MK-7 level in the plasma in the same manner as in Example 1.
As a control, five healthy adults were caused to ingest purified MK-7 in place of the dry cells of Bacillus subtilis natto mentioned above. The plasma similarly obtained from each of the healthy adults was tested for MK-7 level in the plasma.
The cultured product thus obtained was washed with distilled water and then freeze-dried. Five healthy adults (A to E) were each caused to ingest an enteric capsule in which 1 g of freeze-dried product (containing 5×10^11 cells/g of dried product) was filled. In this case, the MK-7 content was determined by the Soxhlet-HPLC method method, to find to be 708.0 μg/g of dried product. At prescribed points, blood was collected from the adults along the course of time. The plasma MK-7 level was tested in the same manner as in Example 1.
Five healthy adults (21 to 63 years old, male) requested to abstain from breakfast were each made to ingest 1,000 μg of the water-soluble vitamin K derivative containing the water-soluble MK-7 derivative prepared in Example 9 at 10 o'clock in the morning. Blood was collected from the healthy adults along the course of time after the ingestion and measured for the level of the water-soluble MK-7 derivative in plasma. As a control, the experiment was repeated with the ingestion of 1,000 μg of purified MK-7 instead.

Data set [2] is described as follows: Photostability: amount of MK-7 on exposure to the light from a fluorescent lamp. It is filed as physicochemical. Particulars: room temperature. How it is done:
This dry MK-7 was exposed to the light from a fluorescent lamp at room temperature for 5 hours. In this case, the amount of MK-7 was measured along the course of time in the same manner as in Example 6. The results are shown in FIG. 7 (indicated by empty circle (◯) marks).
The fat-soluble MK-7 thus prepared was dried to obtain a dry product of MK-7. This dry product of MK-7 was irradiated with the light from a fluorescent lamp at room temperature for 5 hours and then tested for the fat-soluble MK-7 content in the same manner as in Example 6. The results are shown in FIG. 7 (indicated by filled square (▪) marks).

Setting [3] is: oral, 1 g dry cells (about 1.8 × 10^10 cells/g) or about 51.0 μg purified MK-7, average ± SD, n = 5.

Turning to `CC(C)=CCC/C(C)=C/CC/C(C)=C/CC/C(C)=C/CC/C(C)=C/CC/C(C)=C/CC/C(C)=C/CC1=C(C)C(=O)c2ccccc2C1=O` [Purified MK-7, menaquinone-7], the “Level in plasma on the 24th hour after the ingestion” value in data set [1] (Example 14, oral 1,000 μg) worked out at 3.2 ± 2.3 ng/mL. Besides, in data set [1] (before ingestion, oral, 1 g dry cells (about 1.8 × 10^10 cells/g) or about 51.0 μg purified MK-7, average ± standard deviation, n = 5), the “Concentration of MK-7 in plasma (after the elapse of) 0 hour” value is recorded as 1.3 ± 1.1. In addition, in data set [1] (setting [3]), the “Concentration of MK-7 in plasma (after the elapse of) 4 hours” value was 11.2 ± 2.8, the “Concentration of MK-7 in plasma (after the elapse of) 8 hours” value is listed as 7.3 ± 1.6, the “Concentration of MK-7 in plasma (after the elapse of) 12 hours” value was determined as 4.3 ± 1.0 and the “Concentration of MK-7 in plasma (after the elapse of) 24 hours” value is given as 2.2 ± 1.0. Also, in data set [1] (setting [3]), the “Concentration of MK-7 in plasma (after the elapse of) 32 hours” value is on record as 1.4 ± 0.7 ^┘ and the “Concentration of MK-7 in plasma (after the elapse of) 48 hours” value is recorded as 1.4 ± 0.9 ^┘.
Consider `CC(C)=CCC/C(C)=C/CC/C(C)=C/CC/C(C)=C/CC/C(C)=C/CC/C(C)=C/CC/C(C)=C/CC1=C(C)C(=O)c2ccccc2C1=O` [fat-soluble MK-7], for which the “Exposure time to the fluorescent lamp after which the amount of MK-7 could not be measured” value in data set [2] was “about 3 hours”.
